The text below walks through data of PMC12128024, “Copper(II) Cyclopeptides with High ROS-Mediated Cytotoxicity” (Bioconjugate Chemistry, 2025).

Assay [1] in a line: Fluorescence titration of cyclopeptides with Cu(II) ions (DynaFit fit). In kind it is binding. The settings on record: 2 μM cyclopeptide, 1 mM phosphate buffer, 10 mM NaCl, pH 6.5; 1: 1:2 model (cyclopeptide:metal); 2: simplified model with 1:1 and 2:1 species; read-out: global dissociation constant K D. The source says: While the 2,2′-bipyridine ligand is known to be weakly emissive and for all practical purposes considered nonfluorescent, , the 5′-amido-[2,2′-bipyridine]-5-carboxamide unit in the βAlaBpy building block is highly emissive, displaying an intense emission band at c.a. 410 nm with a quantum yield of 0.37. Furthermore, the fluorescence of the βAlaBpy units is quenched upon coordination to a wide range of divalent transition metal ions. We exploited this property to monitor the coordinative properties of cyclopeptides 1 and 2 in the presence of labile Cu(II) ions in aqueous media. Thus, we measured the emission spectra of 2 μM solutions of the cyclopeptides 1 and 2 in 1 mM phosphate buffer and 10 mM NaCl, pH 6.5, upon excitation at 308 nm in the presence of increasing concentrations of Cu(II) ions. […] Therefore, the affinity of the first part of the titrations cannot be determined with this experiment as it is too strong. […]
5.2. Fluorescence titration experiments
Luminescence experiments were made with a Varian Cary Eclipse Fluorescence spectrophotometer coupled to a Cary Single Cell Peltier accessory (Agilent Technologies) temperature controller. […]
emission spectrum was recorded (λex= 308 nm; λem= 410 nm) after each addition. […]

The test system of assay [2] is NCI/ADR-RES (doxorubicin resistant ovarian carcinoma). The settings on record: 48 h.
Source text: (§1) IC50 is the concentration at which 50% growth inhibition is obtained and E max represents the efficacy of the compound at its maximum concentration, expressed as the maximum % cell inhibition achieved by the compound (see Section S6 and Figure S8 of the Supporting Information).
(§2) General method: cell lines and grown conditions
(§3) Non-small lung carcinoma NCI-H460, human colon carcinoma HCT-116, human glioma SF-268
(§4) and doxorubicin-resistance human mamma carcinoma NCI/ADR-RES cell lines, as well as
(§5) Eagle’s Minimal Essential Medium (EMEM) and RPMI1640 were purchased from the American Tissue Culture Collection (ATCC). Frozen cells were thawed in a 75 cm2 cell culture flask in RPMI
(§6) supplemented with 2 mM L-glutamine and 10% FBS and maintained at 37 °C in a 5% CO2
(§7) The inhibition of cell proliferation induced by the samples [1/Cu(II), 1 eq. cyclopeptide 1/3 eq. of
(§8) Cu(II); 2/Cu(II), 1 eq. cyclopeptide 2/5 eq. of Cu(II)]‚ was carried out by using MTT method for
(§9) HCT-116, NCI/ADR-RES and NCI-H460 cell lines. SF-268 cell growth inhibition induced by the
(§10) samples was assessed using a system based on crystal violet cell staining and subsequent
(§11) acetylation. Cells were seeded in a 96-well microplate (5000 cells/well for HCT-116, 10000
(§12) cells/well for SF-268 and 15000 cells/well for NCI/ADR-RES and NCI-H460 cell lines) in 100 μl
(§13) of growth medium and maintained at 37 °C for 24 h.
(§14) Then growth medium was replaced by fresh medium containing different concentrations of the
(§15) samples to be assayed and maintained at 37 °C in a 5% CO2 atmosphere for 48 h. After this
(§16) time, 10 μL MTT (5 mg/ml in PBS) were added to each well and maintained for 4 h at 37 °C in a
(§17) 5% CO2 atmosphere. Then 100 μL of 10% SDS in 0.01 M HCl were added to each well an
(§18) incubated for 12-14 h under the same experimental conditions. Absorbance due to formation
(§19) was detected in a Tecan infinity M1000 Pro reader using a wavelength of 595 nm. All assays
were performed with triplicate points.
b) Crystal violet cell staining
(§20) The samples dissolved in water were added, maintaining the same proportion of water in each
(§21) well (10%). After 72 h (at 37°C and in an atmosphere of 5% CO 2/95% air), the cells were fixed to
(§22) the plate with 10 μL of 11% glutaraldehyde solution, kept under agitation at room temperature,
(§23) for 15 minutes. Once fixed, the medium was removed and the cells were washed 3-4 times with
(§24) distilled water, followed by staining of the cells with 100 μL of a 0.1% crystal violet solution. This
(§25) solution was prepared by diluting 0.1g of crystal violet in 100 mL of buffer composed of 200 mM
(§26) phosphoric acid, 200 mM formic acid and 200 mM 2-(N-morpholino)-ethane sulphonic acid
(§27) (MES) at pH 6. The plate was kept shaking at room temperature for 15 minutes. The dye was
(§28) removed, washed 3-4 times with distilled water and dried. 100 μL of 10% acetic acid was then
(§29) added and kept under agitation for 15 minutes, at room temperature, so that the staining was
(§30) homogeneous in all wells. Finally, an absorbance reading of the plates was performed at a
(§31) wavelength of 595 nm (Tecan M1000 Infinite Pro). The assay was performed with triplicate points.
(§32) Data were expressed as the growth inhibition percentage calculated in basis on the equation: %
(§33) inhibition= 100 – [(AO × 100) / AT]. Where AT is the measured absorbance in wells containing
(§34) compounds and AO is the absorbance measured in blank wells (cells with medium and vehicle).
(§35) The inhibitory potency of compounds was calculated by constructing concentration-% growth
(§36) inhibition curves, and extrapolating IC50 values (concentration of compound that inhibits cells
Assay [3] relates to HCT-116 (colon carcinoma). The settings on record: 48 h.
Source text: as §1, §2, §3, §4, §5, §6, §7, §8, §9, §10, §11, §12, §13, §14, §15, §16, §17, §18, §19
were performed with triplicate points.
b) Crystal violet cell staining
as §20, §21, §22, §23, §24, §25, §26, §27, §28, §29, §30, §31, §32, §33, §34, §35, §36

*1 amine or outer side, *2 acyl side, *3 side chain or, on linkers, in order; H or OH if unused. Where a SMILES comes first, the peptide text is derived from it. [ ]: non-standard residue; d: D form. X1 = O=C(c1ccc(-c2ccc(N[*:1])cn2)nc1)[*:2]; βAla = NCCC(=O)O

Turning to `N=C(N)NCCC[C@@H]1NC(=O)c2ccc(nc2)-c2ccc(cn2)NC(=O)CCNC(=O)[C@H](CCCNC(=N)N)NC(=O)[C@H](CCCNC(=N)N)NC(=O)[C@H](CCCNC(=N)N)NC(=O)c2ccc(nc2)-c2ccc(cn2)NC(=O)CCNC(=O)[C@H](CCCNC(=N)N)NC(=O)[C@H](CCCNC(=N)N)NC1=O` [compound 1, cyclo-(βAlaBpy-Arg3)2] (cyclo([X1]RRR[βAla][X1]RRR[βAla])), the Kd in assay [1] came out at 0.39 ± 0.19 µM. For the same molecule, in assay [2], the “E max (maximum % cell inhibition)” value was found to be 10 ± 2% and the IC50 (usually the concentration at which inhibition is half-maximal) was greater than 100 µM. Further, in assay [3], the “E max (maximum % cell inhibition)” value is listed as 27 ± 1% and the IC50 is greater than 100 µM.
